# In US5008187A, “Antifungal fermentation product” (Merck & Co., Inc., priority 1988, dated 1991):
# “Also recorded” adds a separate entry of the source.
# Key:
# [1] = system: A. flavus; assay: agar dilution MIC; assay type: cell-based; conditions: strain MF383, yeast nitrogen base agar
# Method: (§1) Minimum inhibiting concentration against representative fungal organisms may be seen in the results of tests carried out by the agar dilution method in which an aqueous suspension of the metabolite was solubilized by adding a small amount of methanol. Further dilutions were made employing water. The diluted samples were added to molten agar to produce final concentrations of 512 μg/ml and lower. The molten agar was yeast nitrogen base agar prepared by adding 1 part of sterile yeast nitrogen base agar to 9 parts 2% Difco agar.
# [2] = system: Aspergillus fumigatus; assay: agar dilution MIC; assay type: cell-based; conditions: strain MF4839, yeast nitrogen base agar
# Method: as §1
# [3] = system: Aspergillus niger; assay: agar dilution MIC; assay type: cell-based
# Method: as §1
# [4] = system: C. rugosa; assay: agar dilution MIC; assay type: cell-based; conditions: strain MY1022, yeast nitrogen base agar
# Method: as §1
# [5] = system: C. tropicalis; assay: agar dilution MIC; assay type: cell-based; conditions: strain MY1012, yeast nitrogen base agar
# Method: as §1
# [6] = system: Candida pseudotropicalis; assay: agar dilution MIC; assay type: cell-based; conditions: strain MY1100, yeast nitrogen base agar
# Method: as §1
# [7] = system: Cephalosporium sp.; assay: agar dilution MIC; assay type: cell-based; conditions: strain MF4641, yeast nitrogen base agar
# Method: as §1
# [8] = system: Ceratocystis ulmi; assay: agar dilution MIC; assay type: cell-based; conditions: strain MF4042, yeast nitrogen base agar
# Method: as §1
# [9] = system: Cercospora beticola; assay: agar dilution MIC; assay type: cell-based; conditions: strain MF4608, yeast nitrogen base agar
# Method: as §1
# [10] = system: Cr. albidus; assay: agar dilution MIC; assay type: cell-based; conditions: strain MY1070, yeast nitrogen base agar
# Method: as §1
# [11] = system: Cr. laurentii; assay: agar dilution MIC; assay type: cell-based
# Method: as §1
# [12] = system: Cryptococcus neoformans; assay: agar dilution MIC; assay type: cell-based
# Method: as §1
# [13] = system: Debaryomyces guilliermondi; assay: agar dilution MIC; assay type: cell-based; conditions: strain MY321, yeast nitrogen base agar
# Method: as §1
# [14] = system: Fusarium oxysporium; assay: agar dilution MIC; assay type: cell-based; conditions: strain MF4014, yeast nitrogen base agar
# Method: as §1
# [15] = system: Penicillium sp.; assay: agar dilution MIC; assay type: cell-based
# Method: as §1
# [16] = system: Scopulariopsi communis; assay: agar dilution MIC; assay type: cell-based; conditions: strain MF3769, yeast nitrogen base agar
# Method: as §1
# [17] = system: Trichoderma lignorum; assay: agar dilution MIC; assay type: cell-based; conditions: strain MF3560, yeast nitrogen base agar
# Method: as §1
# [18] = system: Trichoderma sp.; assay: agar dilution MIC; assay type: cell-based; conditions: strain MF4064, yeast nitrogen base agar
# Method: as §1
# [19] = system: Ustilago maydis; assay: agar dilution MIC; assay type: cell-based; conditions: strain MF1996, yeast nitrogen base agar
# Method: as §1
# [20] = system: Verticillium serrae; assay: agar dilution MIC; assay type: cell-based; conditions: strain MF3794, yeast nitrogen base agar
# Method: as §1
# [21] = system: filamentous fungi and yeast organisms; assay: antifungal activity (summary statement); assay type: cell-based; conditions: in words
# Method: as §1
# [22] = system: bacteria; assay: antibacterial activity (summary statement); assay type: cell-based; conditions: in words, no data shown
# [23] = solubility in organic solvents; assay type: physicochemical; conditions: organic solvents such as methanol, ethanol, dimethylformamide, dimethyl sulfoxide, ethyl acetate
smiles,measurement,setting,value
CCCCCCC(C)CC(C)=CC(C=C(C)C=CC(O)C(C)(C)c1cc(O)c(C2OC(CO)CC(O)C2O)c(=O)o1)CO (centres unmarked) [Compound I],MIC,[1],64 mg/L
same,MIC,[2],64 mg/L
same,MIC,"[3]; strain MF11, yeast nitrogen base agar",1.6 mg/L
same,MIC,"[3]; strain MF442, yeast nitrogen base agar",3.1 mg/L
same,MIC,[4],25 mg/L
same,MIC,[5],25 mg/L
same,MIC,[6],25 mg/L
same,MIC,[7],12.5 mg/L
same,MIC,[8],25 mg/L
same,MIC,[9],4 mg/L
same,MIC,[10],8 mg/L
same,MIC,"[11]; strain MY1073, yeast nitrogen base agar",6.2 mg/L
same,MIC,"[11]; strain MY1074, yeast nitrogen base agar",8 mg/L
same,MIC,"[11]; strain MY1077, yeast nitrogen base agar",12.5 mg/L
same,MIC,"[12]; strain MY1046, yeast nitrogen base agar",8 mg/L
same,MIC,"[12]; strain MY1050, yeast nitrogen base agar",32 mg/L
same,MIC,"[12]; strain MY1051, yeast nitrogen base agar",128 mg/L
same,MIC,[13],6.2 mg/L
same,MIC,[14],25 mg/L
same,MIC,"[15]; strain MF5014, yeast nitrogen base agar",3.1 mg/L
same,MIC,"[15]; strain MF5020, yeast nitrogen base agar",1.6 mg/L
same,MIC,[16],6.2 mg/L
same,MIC,[17],6.2 mg/L
same,MIC,[18],1.6 mg/L
same,MIC,[19],8 mg/L
same,MIC,[20],25 mg/L
same,antifungal activity,[21],active against a moderately broad spectrum of filamentous fungi and yeast organisms; also recorded: excellent antifungal properties against many filamentous and many yeast organisms
same,antibacterial properties,[22],antibacterial properties
same,solubility,[23],soluble
